# Experimental data published in patent publication US8129355B2, “Ketone ligands for modulating the expression of exogenous genes via an ecdysone receptor complex” (priority 2002, dated 2012).
# pEC50: −log10 of the molar value. Read-outs that look alike come from different tables or passages of the source.
# Columns and labels:
# [1] = molecular target: T1, Bombyx mori EcR (VP16 fusion, switch construct CVBE) with 6XEcRE LacZ reporter (Bombyx mori, UniProt P49881); test: Z3 assay: β-galactosidase (LacZ) reporter gene fold induction in stably transformed human 293 kidney cells (clone Z3); format: cell-based
# T1 construct: expressed in transfected cells; host or cells: Human 293 kidney (HEK-293) cells, retrovirally infected, clone Z3
# T1 sequence (P49881 86-606 limits assumed): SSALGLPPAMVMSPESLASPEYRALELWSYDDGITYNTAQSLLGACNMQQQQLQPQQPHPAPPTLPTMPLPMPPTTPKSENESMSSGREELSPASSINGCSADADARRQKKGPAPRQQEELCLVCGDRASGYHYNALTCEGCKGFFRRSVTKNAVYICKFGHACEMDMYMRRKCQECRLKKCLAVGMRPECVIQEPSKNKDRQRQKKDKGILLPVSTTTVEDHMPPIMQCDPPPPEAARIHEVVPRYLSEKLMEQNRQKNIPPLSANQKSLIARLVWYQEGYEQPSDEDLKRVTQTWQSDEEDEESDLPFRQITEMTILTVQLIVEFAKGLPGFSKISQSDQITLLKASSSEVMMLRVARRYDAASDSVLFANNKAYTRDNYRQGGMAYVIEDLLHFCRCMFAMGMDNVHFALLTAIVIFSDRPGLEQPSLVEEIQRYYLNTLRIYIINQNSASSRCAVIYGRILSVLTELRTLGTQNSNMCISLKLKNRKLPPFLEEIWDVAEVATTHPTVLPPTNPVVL
# T1 sequence (P19793 1-462 partner): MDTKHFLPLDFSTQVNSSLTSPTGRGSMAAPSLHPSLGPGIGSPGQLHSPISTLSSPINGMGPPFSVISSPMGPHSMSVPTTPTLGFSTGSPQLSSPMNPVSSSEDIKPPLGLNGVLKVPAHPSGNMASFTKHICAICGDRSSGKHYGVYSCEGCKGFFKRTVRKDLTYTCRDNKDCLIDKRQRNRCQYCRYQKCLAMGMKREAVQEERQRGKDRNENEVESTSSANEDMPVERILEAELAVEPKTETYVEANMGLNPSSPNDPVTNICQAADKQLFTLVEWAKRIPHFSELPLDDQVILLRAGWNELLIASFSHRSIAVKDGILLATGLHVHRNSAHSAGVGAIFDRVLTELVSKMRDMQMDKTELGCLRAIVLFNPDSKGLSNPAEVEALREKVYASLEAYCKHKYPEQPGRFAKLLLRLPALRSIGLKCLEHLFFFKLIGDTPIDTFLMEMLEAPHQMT
# Text: Dr. F. Gage provided a population of stably transformed cells containing CVBE and 6XEcRE as described in Suhr, S. T., Gil, E. B., Senut M. C., Gage, F. H. (1998) Proc. Natl. Acad. Sci. USA 95, 7999-804. Human 293 kidney cells, also referred to as HEK-293 cells, were sequentially infected with retroviral vectors encoding first the switch construct CVBE, and subsequently the reporter construct 6XEcRE Lac Z. The switch construct contained the coding sequence for amino acids 26-546 from Bombyx mori EcR (BE) (Iatrou) inserted in frame and downstream of the VP16 transactivation domain (VBE). A synthetic ATG start codon was placed under the control of cytomegalovirus (CVBE) immediate early promoter and flanked by long terminal repeats (LTR). The reporter construct contained six copies of the ecdysone response element (EcRE) binding site placed upstream of LacZ and flanked on both sides with LTR sequences (6XEcRE).
# Dilution cloning was used to isolate individual clones. Clones were selected using 450 ug/mL G418 and 100 ng/mL puromycin. Individual clones were evaluated based on their response in the presence and absence of test ligands. Clone Z3 was selected for screening and SAR purposes.
# Human 293 kidney cells stably transformed with CVBE and 6XEcRE lack were maintained in Minimum Essential Medium (Mediates, 10-010-CV) containing 10% FBS (Life Technologies, 26140-087), […] G418 (Mediates, 30-234-CR), and […] (Sigma, P-7255), at 37° C. in an atmosphere containing 5% CO2 and were subculture when they reached 75% confluence.
# Z3 cells were seeded into 96-well tissue culture plates at a concentration of 2.5×10^3 cells per well and incubated at 37° C. in 5% CO2 for twenty-four hours. Stock solutions of ligands were prepared in DMSO. Ligand stock solutions were diluted 100 fold in media and 50 μL of this diluted ligand solution (33 μM) was added to cells. The final concentration of DMSO was maintained at […] in both controls and treatments.
# Reporter gene expression was evaluated 48 hours after treatment of cells, β-galactosidase activity was measured using Gal Screen™ bioluminescent reporter gene assay system from Tropix (GSY1000).
# Flanking both constructs are long terminal repeats, G418 and puromycin are selectable markers, CMV is the cytomegalovirus promoter, VBE is coding sequence for amino acids 26-546 from Bombyx mori EcR inserted downstream of the VP16 transactivation domain, 6×EcRE is six copies of the ecdysone response element, lacZ encodes for the reporter enzyme β-galactosidase. Suhr, S. T., Gil, E. B., Senut M. C., Gage, F. H. (1998) Proc. Natl. Acad. Sci. USA 95, 7999-804. Swevers, L., Drevet, J. R., Lunke, M. D., Iatrou, K. (1995) Insect Biochem. Mol. Biol. 25, 857-866.
# [2] = molecular target: T2, GAL4 DBD-CfEcR(DEF)/VP16AD-MmRXRE (Choristoneura fumiferana, UniProt O77240); test: cell-based; conditions: for fold induction at 33 µM: CHO, read-out: Fold Induction Average, 13B3 Assay (33 μM); for 13B3 Rel Max FI: maximum fold induction at any concentration relative to that of GS-E ligand
# T2 sequence (O77240 1-513): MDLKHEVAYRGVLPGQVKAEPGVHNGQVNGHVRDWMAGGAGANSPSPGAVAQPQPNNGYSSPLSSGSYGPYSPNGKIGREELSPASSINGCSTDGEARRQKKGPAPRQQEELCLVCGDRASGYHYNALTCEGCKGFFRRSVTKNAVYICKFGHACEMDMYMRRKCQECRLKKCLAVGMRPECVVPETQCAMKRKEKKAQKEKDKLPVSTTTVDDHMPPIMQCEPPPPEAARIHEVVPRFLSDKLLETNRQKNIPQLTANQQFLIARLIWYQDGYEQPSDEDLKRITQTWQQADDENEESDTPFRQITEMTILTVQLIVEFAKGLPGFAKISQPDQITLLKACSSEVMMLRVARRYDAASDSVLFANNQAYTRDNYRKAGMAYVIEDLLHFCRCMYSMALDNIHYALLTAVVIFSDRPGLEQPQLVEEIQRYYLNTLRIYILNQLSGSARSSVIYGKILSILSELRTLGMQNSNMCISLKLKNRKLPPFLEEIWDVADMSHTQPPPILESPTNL
# Text: GAL4 DBD-CfEcR(DEF)/VP16AD-MmRXRE: The wild-type D, E, and F domains from spruce budworm Choristoneura fumiferana EcR (“CfEcR-DEF”; SEQ ID NO: 1) were fused to a GAL4 DNA binding domain (“Gal4 DBD1-147”; nucleotides 31 to 471 of SEQ ID NO: 2) and placed under the control of the SV40e promoter of pM vector (PT3119-5, Clontech, Palo Alto, Calif.). The D and E domains from Mus Musculus RXR (“MmRXR-DE”; SEQ ID NO: 10) were fused to the transactivation domain from VP16 (“VP16AD”; SEQ ID NO: 5) and placed under the control of the SV40e promoter of the pVP16 vector (PT3127-5, Clontech, Palo Alto, Calif.).
# CHO cells were transienty transfected with transcription cassettes for GAL4 DBD-CfEcR(DEF) and for VP16AD-MmRXRE controlled by SV40e promoters. Stably transfected cells were selected using Hygromycin. Individually isolated CHO cell clones were transiently transfected with a GAL4 RE-luciferase reporter (pMR-Luc, Stratagene, La Jolla, Calif.). The 13B3 clone was selected using Zeocin.
# Cells were trypsinized and diluted to a concentration of 2.5×10^4 cells mL. 100 μL of cell suspension was placed in each well of a 96 well plate and incubated at 37° C. under 5% CO2 for 24 h. Ligand stock solutions were prepared in DMSO and diluted 300 fold for all treatments. Dose response testing consisted of 8 concentrations ranging from 33 μM to 0.01 μM.
# Luciferase reporter gene expression was measured 48 h after cell treatment using Bright-Glo™ Luciferase Assay System from Promega (E2650). Luminescence was detected at room temperature using a Dynex MLX microtiter plate luminometer.
# Fold inductions were calculated from single dose testing by dividing relative light units (RLU) in ligand treated cells by RLU in DMSO treated cells. BC50s were calculated from dose response data using a three-parameter logistic model.
# [3] = maximum fold induction at any concentration relative to that of GS-E ligand
# [4] = read-out: Fold Induction Average, Z3 Assay (33 μM)
# [5] = read-out: Z3 LC50; average; dose response, three-parameter logistic model
# [6] = single dose 33 μM; ligand treated / DMSO treated cells
Compound,"Fold Induction Average, Z3 Assay (33 μM) [1, 6]","Fold Induction Average, 13B3 Assay (33 μM) [2]",further results
COc1cccc(C(=O)NC2(C(=O)c3cccc(C)c3)CCC2)c1C [Example 6],–,–,"Z3 Rel Max FI [1, 3]: 0.05; fold induction at 33 µM [1, 4]: 82; CC50 [1, 5]: 10.7 µM; pEC50 [2]: < 4.48; fold induction at 33 µM [2]: 1; 13B3 Rel Max FI [2]: 0.00"
Cc1ccccc1C(=O)NC(C)(C)C(=O)c1ccccc1 [Example 105],1,3,–
COc1ccc(C(=O)C2(NC(=O)c3cccc(OC)c3C)CCCC2)cc1 [Example 41],4,2,–
CC(C)(NC(=O)c1ccc(Cl)cc1)C(=O)c1ccccc1 [Example 95],4,–,"CC50 ([1]; average; dose response, three-parameter logistic model; read-out: Z3 LC50): 0.82 µM; Z3 Rel Max FI [1, 3]: 2.27; Fold Induction Average, 13B3 Assay (33 μM) ([2]; single dose 33 μM, RLU ligand treated / RLU DMSO treated cells): 1"
COc1cccc(C(=O)NC2(C(=O)c3cccc(C)c3)CCCC2)c1C [Example 2],–,–,"Z3 Rel Max FI [1, 3]: 0.46; fold induction at 33 µM [1, 4]: 786; CC50 [1, 5]: 3.38 µM; pEC50 [2]: < 4.48; fold induction at 33 µM [2]: 2620; 13B3 Rel Max FI [2]: 0.24"
COc1cccc(C(=O)NC2(C(=O)c3ccc4c(c3)OCO4)CCCCC2)c1C [Example 47],21,3,–
COc1cccc(C(=O)NC2(C(=O)c3cc(C)cc(C)c3)CCN(C(=O)OC(C)(C)C)CC2)c1C [Example 110],1,2,–
COc1cccc(C(=O)NC(C)(Cc2ccccc2)C(=O)c2cccc(C)c2)c1C (stereo not shown) [Example 8],15,2,–
COc1cccc(C(=O)NC(C(=O)c2cc(C)cc(C)c2)C(C)(C)C)c1C (stereo not shown) [Example 115],15,1,–
Cc1c(C(=O)NC2(C(=O)c3ccccc3)CCCC2)oc2ccccc12 [Example 102],1,1,–
CCC(CC)(NC(=O)c1cccc(OC)c1C)C(=O)c1ccc(OC)cc1 [Example 58],4,4,–
COc1cccc(C(=O)NC2(C(=O)c3cccc(C)c3)CC2)c1C [Example 9],12,0,–
